Columns and labels:
Details in all cases: incubation time: 72 h
MDA-MB-468 [1] = assay: normalised response (% of control), CellTox Green; higher = less cell death (100 = DMSO, 0 = benzethonium chloride kill control)
Summary of the method: (§1)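 For each plate, 0.1 % DMSO was set to 100 and a positive kill control to 0. Breast cancer cell lines (20 µl suspension) were seeded into 384-well plates already holding compound at 5 concentrations in 10-fold steps over a 10,000-fold range chosen per compound, and incubated for 72 h. CellTox Green fluorescence at 485/520 nm was read before CellTiter-Glo luminescence, which followed 10 min at room temperature. Each value is the normalised signal at one concentration.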

HCC1937 [2] = assay: as above
Summary of the method: as §1

DU-4475 [3] = assay: as above
Summary of the method: as §1

BT-474 [4] = assay: as above
Summary of the method: as §1

MDA-MB-453 [5] = assay: as above
Summary of the method: as §1

BT-549 [6] = assay: as above
Summary of the method: as §1

MDA-MB-436 [7] = assay: as above
Summary of the method: as §1

HCC1143 [8] = assay: as above
Summary of the method: as §1

MFM-223 [9] = assay: as above
Summary of the method: as §1

HCC1599 [10] = assay: as above
Summary of the method: as §1

CAL-51 [11] = assay: as above
Summary of the method: as §1

CAL-120 [12] = assay: as above
Summary of the method: as §1

CAL-148 [13] = assay: as above
Summary of the method: as §1

MDA-MB-231 [14] = assay: as above
Summary of the method: as §1

Hs578T [15] = assay: as above
Summary of the method: as §1

CAL-85-1 [16] = assay: as above
Summary of the method: as §1

MDA-MB-468 [17] = assay: normalised response (% of control), CellTiter-Glo; higher = more viable cells (100 = DMSO, 0 = benzethonium chloride kill control)
Description: (§2)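 DSRT, 72 h incubation, CellTox Green / CellTiter-Glo readout. Signal is normalised to DMSO and benzethonium chloride controls. Value is the normalised response at dose 3.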

HCC1937 [18] = assay: as above
Description: as §2

DU-4475 [19] = assay: as above
Description: as §2

BT-474 [20] = assay: as above
Description: as §2

HDQ-P1 [21] = assay: as above
Description: as §2

MDA-MB-453 [22] = assay: as above
Description: as §2

BT-549 [23] = assay: as above
Description: as §2

MDA-MB-436 [24] = assay: as above
Description: as §2

HCC1143 [25] = assay: as above
Description: as §2

MFM-223 [26] = assay: as above
Description: as §2

SK-BR-3 = assay: as above
Description: as §2

HCC1599 [27] = assay: as above
Description: as §2

CAL-51 [28] = assay: as above
Description: as §2

CAL-120 [29] = assay: as above
Description: as §2

CAL-148 [30] = assay: as above
Description: as §2

MCF-10A [31] = assay: as above
Description: as §2

MDA-MB-231 [32] = assay: as above
Description: as §2

Hs578T [33] = assay: as above
Description: as §2

CAL-85-1 [34] = assay: as above
Description: as §2

HDQ-P1 [35] = assay: normalised response (% of control), CellTox Green; higher = less cell death (100 = DMSO, 0 = benzethonium chloride kill control)
Summary of the method: as §1

MCF-10A [36] = assay: as above
Summary of the method: as §1

Structure (SMILES) | normalised response (MDA-MB-468 [1]) [%] | normalised response (HCC1937 [2]) [%] | normalised response (DU-4475 [3]) [%] | normalised response (BT-474 [4]) [%] | normalised response (MDA-MB-453 [5]) [%] | normalised response (BT-549 [6]) [%] | normalised response (MDA-MB-436 [7]) [%] | normalised response (HCC1143 [8]) [%] | normalised response (MFM-223 [9]) [%] | normalised response (HCC1599 [10]) [%] | normalised response (CAL-51 [11]) [%] | normalised response (CAL-120 [12]) [%] | normalised response (CAL-148 [13]) [%] | normalised response (MDA-MB-231 [14]) [%] | normalised response (Hs578T [15]) [%] | normalised response (CAL-85-1 [16]) [%] | normalised response (MDA-MB-468 [17]) [%] | normalised response (HCC1937 [18]) [%] | normalised response (DU-4475 [19]) [%] | normalised response (BT-474 [20]) [%] | normalised response (HDQ-P1 [21]) [%] | normalised response (MDA-MB-453 [22]) [%] | normalised response (BT-549 [23]) [%] | normalised response (MDA-MB-436 [24]) [%] | normalised response (HCC1143 [25]) [%] | normalised response (MFM-223 [26]) [%] | normalised response (SK-BR-3) [%] | normalised response (HCC1599 [27]) [%] | normalised response (CAL-51 [28]) [%] | normalised response (CAL-120 [29]) [%] | normalised response (CAL-148 [30]) [%] | normalised response (MCF-10A [31]) [%] | normalised response (MDA-MB-231 [32]) [%] | normalised response (Hs578T [33]) [%] | normalised response (CAL-85-1 [34]) [%] | normalised response (HDQ-P1 [35]) [%] | normalised response (MCF-10A [36]) [%]
CN(c1ccccc1CNc1nc(Nc2ccc3c(c2)CC(=O)N3)ncc1C(F)(F)F)S(C)(=O)=O (100 nM) | 115 | 83.4 | 98.1 | 94.5 | 103 | 97.5 | 80.3 | 84.4 | 103 | 94 | 87.6 | 99.9 | 99.2 | 85.8 | 104 | 102 | 88.5 | 96.5 | 95.6 | 89.8 | 101 | 90.4 | 97.9 | 91.9 | 96.5 | 95.5 | 88.3 | 98.3 | 93.1 | 87.2 | 104 | 86.2 | 89.6 | 94.3 | 95.5 |  | 
Nc1nccc(-c2c(-c3ccc(F)cc3)ncn2C2CCCCC2)n1 (100 nM) |  | 78.4 | 107 | 103 | 98.8 | 93.9 | 81.8 | 100 | 104 | 98.9 | 94.3 | 102 | 101 | 112 | 86.7 | 97.7 | 96.2 | 102 | 101 | 99.9 | 95.2 | 104 | 98.3 | 113 | 112 | 102 | 97.3 | 102 | 84.4 | 105 | 105 | 105 | 106 | 104 | 98.9 | 104 | 110
O=c1[nH]c(=O)n([C@H]2C[C@H](O)[C@@H](CO)O2)cc1F [Floxuridine] (100 nM) | 96.2 | 51.1 | 107 | 102 | 104 | 114 | 115 | 63.4 | 98.5 | 113 | 95.6 | 107 |  | 115 | 103 | 87.3 | 86.1 | 75.4 | 103 | 99.3 | 90.8 | 116 | 94.4 | 74.6 | 103 | 113 | 71.4 | 66.8 | 57.2 | 99.3 | 110 | 109 | 100 | 28 | 57 |  | 97.8
COC1=C2C[C@@H](C)C[C@H](OC)[C@H](O)[C@@H](C)/C=C(\C)[C@H](OC(N)=O)[C@@H](OC)/C=C\C=C(/C)C(=O)NC(=CC1=O)C2=O [Geldanamycin] (100 nM) |  | 111 | 104 | 100 | 106 | 99.4 |  | 76.5 | 95.2 | 106 | 96 | 99.7 | 106 | 103 |  | 96.5 | 106 | 101 | 106 | 102 | 102 | 113 | 96.5 | 107 | 104 | 115 | 105 | 109 | 84.7 | 109 | 118 | 103 | 113 | 107 | 108 | 106 | 95.5
CS(=O)(=O)CCNCc1ccc(-c2ccc3ncnc(Nc4ccc(OCc5cccc(F)c5)c(Cl)c4)c3c2)o1 [Lapatinib] (10 nM) | 87.9 | 90.5 | 101 | 97.8 | 103 | 91.8 | 107 | 109 | 105 | 103 | 99.4 | 101 |  | 76.9 | 104 | 87.4 | 99.1 | 99.2 | 106 | 101 | 95.7 | 105 | 105 | 100 | 103 | 109 | 87.1 | 97.6 | 90.1 | 107 | 112 | 95.5 | 103 | 106 | 101 | 82.1 | 100
CC(C)(C)c1cc(NC(=O)Nc2ccc(-c3cn4c(n3)sc3cc(OCCN5CCOCC5)ccc34)cc2)no1 [Quizartinib] (10 nM) | 137 |  | 99.3 | 97.6 | 93.9 | 104 | 95.2 | 125 | 102 | 117 | 89.8 | 94.6 | 108 | 99.1 | 107 | 107 | 103 | 98 | 97.9 | 109 | 101 | 101 | 108 | 109 | 104 | 105 | 104 | 89 | 71.4 | 108 | 103 | 105 | 108 | 102 | 103 | 92.7 | 106
Cn1c(=O)c(F)c(Nc2ccc(I)cc2F)c2c(=O)n(C[C@@H](O)CO)cnc21 [TAK-733] (10 nM) | 113 |  | 95.9 | 103 | 112 | 105 | 114 | 118 | 104 | 119 | 104 | 103 | 107 | 99.2 | 71.8 | 104 | 92.6 | 88 | 38.9 | 89.8 | 74.5 | 115 | 104 | 104 | 92.6 | 102 | 107 | 82.3 | 84.7 | 97.6 | 97.2 | 53.8 | 90.3 | 96.8 | 93.7 | -40.4 | 90.9
CCS(=O)(=O)c1cccc(-c2cc(C(=O)NC3CCN(C)CC3)c(C)c3[nH]c4ncc(C)cc4c23)c1 [TAK-901] (10 nM) | 77.1 | 120 | 101 | 100 | 101 | 72.2 | 96 | 69 | 101 | 104 | 98.6 | 103 | 105 | 100 |  | 95.7 | 94.7 | 93.4 | 107 | 102 | 97 | 103 | 101 | 110 | 98.7 | 109 | 108 | 120 | 92.4 | 99.6 | 104 | 104 | 101 | 108 | 100 | 108 | 78.2
Cc1cc(C(C)Nc2ccccc2)c2nc(N3CCOCC3)cc(=O)n2c1 (centres undefined) [TGX-221] (100 nM) | 52.6 | 80.5 | 99.1 | 89.3 | 96 | 92.5 | 97 | 74.4 | 99.2 | 95.3 | 90.6 | 105 | 81 |  | 98.5 | 114 | 86.4 | 88.1 | 95.8 | 90.1 | 98.7 | 93.2 | 86.5 | 94 | 96.4 | 94 | 99.7 | 113 | 65.8 | 97.2 | 100 | 93.5 | 92.7 | 93.9 | 99.7 |  | 108
